According to patent US8475804B2 (priority 2009, dated 2013):
Counter-ions that a name gives are not always drawn. Like-named read-outs stand apart in the source and are kept apart here.

Columns and labels:
Ebola virus [1] = test: microbe, parasite or virus in culture; format: cell-based, Ebolavirus (EBOV)
Ebola virus [2] = test: microbe, parasite or virus in culture; format: cell-based, Ebolavirus (EBOV); parameters: Max Effect HepG2: unit not given here; settings: for Emax: HepG2, read-out: Max Effect HepG2
[3] = Zaire ebolavirus, Vero, read-out: Max Effect
[4] = Zaire ebolavirus, Vero, read-out: Max Effect Vero
[5] = Zaire ebolavirus, Vero, read-out: IC50 (μM) Vero
[6] = Zaire ebolavirus, HepG2, read-out: IC50 (μM) HepG2

`Cl.Cl.OCCN1CCN(CCC=C2c3ccccc3Sc3ccc(C(F)(F)F)cc32)CC1` (mixture of isomers) [Flupentixol Dihydrochloride] was tested, and the “Max Effect” value (Ebola virus [1]) was 0.660, the “Max Effect Vero” value (Ebola virus [1]) was 0.959 and the “Max Effect HepG2” value (Ebola virus [2]) was 0.744.

Compound `O=C1CCc2ccc(OCCCCN3CCN(c4cccc(Cl)c4Cl)CC3)cc2N1` [Aripiprazole] has an Emax (Ebola virus [1]; [3]) of 80.7%, an Emax (Ebola virus [1]; [4]) of 53% and an Emax (Ebola virus [2]; Zaire ebolavirus) of 94.7%.

In the case of `COc1ccc(CCN2CCC(Nc3nc4ccccc4n3Cc3ccc(F)cc3)CC2)cc1` [Astemizole], the Emax (Ebola virus [1]; [3]) is reported as 83.5%, the Emax (Ebola virus [1]; [4]) is reported as 96.5% and the Emax (Ebola virus [2]; Zaire ebolavirus) is reported as 91.4%.

In the case of `O=C1C(O)=C([C@H]2CC[C@H](c3ccc(Cl)cc3)CC2)C(=O)c2ccccc21` [Atovaquone], the IC50 (Ebola virus [1]; Zaire ebolavirus, Vero) is reported as less than 1 µM, the IC50 (Ebola virus [1]; [5]) is reported as 0.44 µM and the Emax (Ebola virus [1]; [3]) is reported as 90%. For the same compound, the Emax (Ebola virus [1]; [4]) was 73.9% and the Emax (Ebola virus [2]; Zaire ebolavirus) was 23.1%.

In the case of `Nc1ncn([C@@H]2O[C@H](CO)[C@@H](O)[C@H]2O)c(=O)n1` [Azacitidine], the IC50 (Ebola virus [1]; Zaire ebolavirus, Vero) is reported as 5 µM, the IC50 (Ebola virus [1]; [5]) is reported as 8.9 µM and the Emax (Ebola virus [1]; [3]) is reported as 59.5%. It also gave an Emax (Ebola virus [1]; [4]) of 74.6%, an IC50 (Ebola virus [2]; [6]) of 10 µM and an Emax (Ebola virus [2]; Zaire ebolavirus) of 89.9%.

`CN1[C@@H]2CC[C@H]1C[C@@H](OC(c1ccccc1)c1ccccc1)C2` [Benztropine Mesylate] was tested, and the Emax (Ebola virus [1]; [3]) was 63.3%, the Emax (Ebola virus [1]; [4]) was 89.9% and the Emax (Ebola virus [2]; Zaire ebolavirus) was 94.3%.

In the case of `CC(C)COCC(CN(Cc1ccccc1)c1ccccc1)N1CCCC1` (stereo not drawn) [Bepridil Hydrochloride Monohydrate], the IC50 (Ebola virus [1]; Zaire ebolavirus, Vero) is reported as 3.1 µM, the IC50 (Ebola virus [1]; [5]) is reported as 5.1 µM and the Emax (Ebola virus [1]; [3]) is reported as 72%. The Emax (Ebola virus [1]; [4]) was 97%, the IC50 (Ebola virus [2]; [6]) was 3.2 µM and the Emax (Ebola virus [2]; Zaire ebolavirus) was 91.2%.

With `CCN(CC)CCOc1ccc(/C(=C(\Cl)c2ccccc2)c2ccccc2)cc1` [Clomiphene Citrate] the Emax (Ebola virus [1]; [3]) was 91.2%, the Emax (Ebola virus [1]; [4]) was 96.4% and the Emax (Ebola virus [2]; Zaire ebolavirus) was 93.4%.

For `CN(C)CCCN1c2ccccc2CCc2ccc(Cl)cc21` [Clomipramine Hydrochloride], the Emax (Ebola virus [1]; [3]) was 58.5%, the Emax (Ebola virus [1]; [4]) was 96.1% and the Emax (Ebola virus [2]; Zaire ebolavirus) was 89.7%.

Work on `Cc1nc(Nc2ncc(C(=O)Nc3c(C)cccc3Cl)s2)cc(N2CCN(CCO)CC2)n1` [Dasatinib] yielded an IC50 (Ebola virus [1]; [5]) of 16 µM, an Emax (Ebola virus [1]; [3]) of 42.8% and an Emax (Ebola virus [1]; [4]) of 64.2%. The IC50 (Ebola virus [2]; [6]) was 4.2 µM and the Emax (Ebola virus [2]; Zaire ebolavirus) was 94.1%.

`O=C1Nc2ccc(Cl)cc2[C@@](C#CC2CC2)(C(F)(F)F)O1` [Efavirenz] was tested, and the IC50 (Ebola virus [1]; Zaire ebolavirus, Vero) was 7.8 µM, the IC50 (Ebola virus [1]; [5]) was 10 µM and the Emax (Ebola virus [1]; [3]) was 51.6%. The Emax (Ebola virus [1]; [4]) was 63.9%, the IC50 (Ebola virus [2]; [6]) was 14 µM and the Emax (Ebola virus [2]; Zaire ebolavirus) was 86%.

Compound `OCCN1CCN(CC/C=C2/c3ccccc3Sc3ccc(C(F)(F)F)cc32)CC1` [Flupentixol Dihydrochloride] has an IC50 (Ebola virus [1]; read-out: IC50) of 3.8 µM, an IC50 (Ebola virus [1]; read-out: IC50 (μM) Vero) of 5.7 µM and an IC50 (Ebola virus [2]; read-out: IC50 (μM) HepG2) of 1.6 µM.

For `OCCN1CCN(CCCN2c3ccccc3Sc3ccc(C(F)(F)F)cc32)CC1` [Fluphenazine Hydrochloride], the Emax (Ebola virus [1]; [3]) was 98.8%, the Emax (Ebola virus [1]; [4]) was 96.8% and the Emax (Ebola virus [2]; Zaire ebolavirus) was 92%.

With `CCN(CC)CCNc1ccc(CO)c2sc3ccccc3c(=O)c12` [Hycanthone] the IC50 (Ebola virus [1]; Zaire ebolavirus, Vero) was 10.4 µM, the IC50 (Ebola virus [1]; [5]) was 11 µM and the Emax (Ebola virus [1]; [3]) was 59.7%. For the same compound, the Emax (Ebola virus [1]; [4]) was 96.8%, the IC50 (Ebola virus [2]; [6]) was 6 µM and the Emax (Ebola virus [2]; Zaire ebolavirus) was 96.2%.

Compound `CO[C@H]1C[C@H](O[C@H]2CC[C@]3(C=O)[C@H]4CC[C@]5(C)[C@@H](C6=CC(=O)OC6)CC[C@]5(O)[C@@H]4CC[C@]3(O)C2)O[C@H](C)[C@H]1O` [K-Strophanthin] has an IC50 (Ebola virus [1]; Zaire ebolavirus, Vero) of less than 0.5 µM, an IC50 (Ebola virus [1]; [5]) of 0.035 µM and an Emax (Ebola virus [1]; [3]) of 90%. It also gave an Emax (Ebola virus [1]; [4]) of 74.2%, an IC50 (Ebola virus [2]; [6]) of 0.021 µM and an Emax (Ebola virus [2]; Zaire ebolavirus) of 86.7%.

Compound `COc1ccc(CN2CCN(C(c3ccc(F)cc3)c3ccc(F)cc3)CC2)c(OC)c1OC` [Lomerizine Dihydrochloride] has an IC50 (Ebola virus [1]; Zaire ebolavirus, Vero) of 10.1 µM, an IC50 (Ebola virus [1]; [5]) of 11 µM and an Emax (Ebola virus [1]; [3]) of 66.5%. For the same compound, the Emax (Ebola virus [1]; [4]) was 89.9%, the IC50 (Ebola virus [2]; [6]) was 2.1 µM and the Emax (Ebola virus [2]; Zaire ebolavirus) was 91.8%.

`CNCCCC12CCC(c3ccccc31)c1ccccc12` [Maprotiline Hydrochloride] showed an Emax (Ebola virus [1]; [3]) of 79.5%, an Emax (Ebola virus [1]; [4]) of 98.6% and an Emax (Ebola virus [2]; Zaire ebolavirus) of 92.5%.

Compound `COc1c(C)c2c(c(O)c1C/C=C(\C)CCC(=O)OCCN1CCOCC1)C(=O)OC2` [Mycophenolate Mofetil] has an IC50 (Ebola virus [1]; Zaire ebolavirus, Vero) of less than 1 µM, an Emax (Ebola virus [1]; [3]) of 90% and an Emax (Ebola virus [1]; [4]) of 43.8%. For the same compound, the IC50 (Ebola virus [2]; [6]) was 0.29 µM and the Emax (Ebola virus [2]; Zaire ebolavirus) was 88.6%.

In the case of `Fc1ccc([C@@H]2CCNC[C@H]2COc2ccc3c(c2)OCO3)cc1` [Paroxetine Hydrochloride Hemihydrate], the IC50 (Ebola virus [1]; Zaire ebolavirus, Vero) is reported as 9.3 µM, the IC50 (Ebola virus [1]; [5]) is reported as 7.4 µM and the Emax (Ebola virus [1]; [3]) is reported as 82%. The Emax (Ebola virus [1]; [4]) was 96%, the IC50 (Ebola virus [2]; [6]) was 1.4 µM and the Emax (Ebola virus [2]; Zaire ebolavirus) was 92%.

In the case of `O=c1[nH]c2ccccc2n1C1CCN(CCCC(c2ccc(F)cc2)c2ccc(F)cc2)CC1` [Pimozide], the IC50 (Ebola virus [1]; Zaire ebolavirus, Vero) is reported as 4.8 µM, the IC50 (Ebola virus [1]; [5]) is reported as 3.1 µM and the Emax (Ebola virus [1]; [3]) is reported as 68.5%. For the same compound, the Emax (Ebola virus [1]; [4]) was 96.8%, the IC50 (Ebola virus [2]; [6]) was 1.7 µM and the Emax (Ebola virus [2]; Zaire ebolavirus) was 91%.

For `CC(=O)c1ccc2c(c1)N(CCCN1CCC(CCO)CC1)c1ccccc1S2` [Piperacetazine], the “Max Effect” value (Ebola virus [1]) was 0.641, the “Max Effect Vero” value (Ebola virus [1]) was 0.962 and the IC50 (Ebola virus [1]; read-out: IC50) was 6.6 µM. For the same compound, the IC50 (Ebola virus [1]; read-out: IC50 (μM) Vero) was 12 µM, the “Max Effect HepG2” value (Ebola virus [2]) was 0.954 and the IC50 (Ebola virus [2]; read-out: IC50 (μM) HepG2) was 3.3 µM.

`CN1CCN(CCCN2c3ccccc3Sc3ccc(Cl)cc32)CC1` [Prochlorperazine Edisylate] gave an Emax (Ebola virus [1]; [3]) of 89%, an Emax (Ebola virus [1]; [4]) of 96.3% and an Emax (Ebola virus [2]; Zaire ebolavirus) of 94.7%.

In the case of `CCN(CC)CCCC(C)Nc1c2ccc(Cl)cc2nc2ccc(OC)cc12` (stereo not drawn) [Quinacrine Dihydrochloride], the IC50 (Ebola virus [1]; Zaire ebolavirus, Vero) is reported as 9.5 µM, the IC50 (Ebola virus [1]; [5]) is reported as 5.7 µM and the Emax (Ebola virus [1]; [3]) is reported as 77.9%. The Emax (Ebola virus [1]; [4]) was 92.3%, the IC50 (Ebola virus [2]; [6]) was 1 µM and the Emax (Ebola virus [2]; Zaire ebolavirus) was 86.2%.

With `CN[C@H]1CC[C@@H](c2ccc(Cl)c(Cl)c2)c2ccccc21` [Sertraline Hydrochloride] the Emax (Ebola virus [1]; [3]) was 41.8%, the Emax (Ebola virus [1]; [4]) was 96.2% and the Emax (Ebola virus [2]; Zaire ebolavirus) was 95%.

Compound `CCC(C)(C)C(=O)O[C@H]1C[C@@H](C)C=C2C=C[C@H](C)[C@H](CC[C@@H]3C[C@@H](O)CC(=O)O3)[C@H]21` [Simvastatin] has an IC50 (Ebola virus [1]; Zaire ebolavirus, Vero) of 2 µM, an IC50 (Ebola virus [1]; [5]) of 20 µM and an Emax (Ebola virus [1]; [3]) of 69%. For the same compound, the Emax (Ebola virus [1]; [4]) was 55.7% and the Emax (Ebola virus [2]; Zaire ebolavirus) was 35.3%.

With `CN(C)CCOc1ccc(/C(=C(/CCCl)c2ccccc2)c2ccccc2)cc1` [Toremifene Citrate] the IC50 (Ebola virus [1]) was greater than 1 µM, the “Max Effect” value (Ebola virus [1]) was 0.900 and the IC50 (Ebola virus [1]; [5]) was 0.16 µM. For the same compound, the Emax (Ebola virus [1]; [4]) was 93.5%, the IC50 (Ebola virus [2]; [6]) was 0.026 µM and the Emax (Ebola virus [2]; Zaire ebolavirus) was 94.9%.

In the case of Antimycin A, the “Max Effect” value (Ebola virus [1]) is reported as 0.850 and the IC50 (Ebola virus [1]; read-out: IC50) is reported as less than 0.04 µM.

With Beta Escin the “Max Effect” value (Ebola virus [1]) was 0.878.

With Bromelain the “Max Effect” value (Ebola virus [1]) was 0.769 and the IC50 (Ebola virus [1]; read-out: IC50) was 4 µM.

With Cetrimide the “Max Effect” value (Ebola virus [1]) was 0.692 and the IC50 (Ebola virus [1]; read-out: IC50) was 5.6 µM.

For Chondroitin Sulfate, the “Max Effect” value (Ebola virus [1]) was 0.535 and the IC50 (Ebola virus [1]; read-out: IC50) was 11.4 µM.

Gramicidin was tested, and the “Max Effect” value (Ebola virus [1]) was 0.678.

For Guanethidine Monosulfate, the “Max Effect” value (Ebola virus [1]) was 0.793 and the IC50 (Ebola virus [1]; read-out: IC50) was 8.7 µM.

For Nonoxynol-9, the “Max Effect” value (Ebola virus [1]) was 0.535 and the IC50 (Ebola virus [1]; read-out: IC50) was 8.7 µM.

For Sodium Vanadate, the IC50 (Ebola virus [1]; read-out: IC50) was 13 µM.

For Tunicamycin, the “Max Effect” value (Ebola virus [1]) was 0.800 and the IC50 (Ebola virus [1]; read-out: IC50) was less than 0.28 µM.

With Vinorelbine Tartrate Hydrate the “Max Effect” value (Ebola virus [1]) was 0.472, the “Max Effect Vero” value (Ebola virus [1]) was 0.256 and the IC50 (Ebola virus [1]; read-out: IC50) was 3.2 µM. For the same compound, the “Max Effect HepG2” value (Ebola virus [2]) was 0.788 and the IC50 (Ebola virus [2]; read-out: IC50 (μM) HepG2) was 0.86 µM.
